Calls of active or inactive are those of the source. The calls are words filed in the database; no cut-off is given here.
Columns and labels:
[1] = target: T1, von Hippel-Lindau disease tumor suppressor/Vascular endothelial growth factor receptor 2 (Homo sapiens, UniProt P35968+P40337); test: (§1) PROTAC activity at VHL/VEGFR2 in human HGC-27 cells assessed as reduction in relative VEGRF2 expression level at 1 uM preincubated with VH032 for 2 hrs followed by compound addition and measured after 24 hrs by Western blot analysis; type: cell-based
HGC-27 [2] = test: Induction of apoptosis in human HGC-27 cells assessed as necrotic cells at 0.1 uM incubated for 24 hrs by Annexin V-FITC/PI staining based analysis (reference value: 0.65 %); type: functional
[3] = target: T1, von Hippel-Lindau disease tumor suppressor/Vascular endothelial growth factor receptor 2; test: PROTAC activity at VHL/VEGFR2 in human HGC-27 cells assessed as induction of VEGFR2 degradation at 1 uM measured after 8 hrs by Western blot analysis relative to control; type: cell-based
HGC-27 [4] = test: Induction of apoptosis in human HGC-27 cells assessed as early apoptotic cells at 0.033 uM incubated for 24 hrs by Annexin V-FITC/PI staining based analysis (reference value: 1.7 %); type: functional
[5] = target: T1, von Hippel-Lindau disease tumor suppressor/Vascular endothelial growth factor receptor 2; test: PROTAC activity at VHL/VEGFR2 in HUVEC cells assessed as reduction in VEGFR2 protein level by measuring maximal efficacy at 0.007 to 10 uM incubated for 24 hrs by Western blot analysis relative to control; type: cell-based; settings: dose 0.007-10 µM
[6] = Effect on VEGFR2 mRNA expression in human HGC-27 cells at 3.33 uM incubated for 24 hrs by qPCR analysis relative to control; type: functional
HGC-27 [7] = test: Inhibition of cell migration in human HGC-27 cells measured upto 24 hrs by wound healing assay; type: functional, cell-based; settings: dose 0.033-3.33 µM
HGC-27 [8] = test: Induction of apoptosis in human HGC-27 cells assessed as viable cells at 1 uM incubated for 24 hrs by Annexin V-FITC/PI staining based analysis (reference value: 95.3%); type: functional; settings: read-out: Activity
[9] = target: T1, von Hippel-Lindau disease tumor suppressor/Vascular endothelial growth factor receptor 2; test: as §1, with “4-Amino-N-(6-(1-(2-((4-methyl-3-(trifluoromethyl)phenyl)amino)-2-oxoethyl)-1H-pyrazol-4-y1)-1H-indazol-3-Abenzamide” for “VH032”; type: cell-based
HGC-27 [10] = test: Antiinvasive activity in human HGC-27 cells assessed as reduction in number of invasive cells at 0.33 uM incubated for 24 hrs by transwell invasion assay (reference value: 118); type: functional
HGC-27 [11] = test: Induction of apoptosis in human HGC-27 cells assessed as viable cells at 0.33 uM incubated for 24 hrs by Annexin V-FITC/PI staining based analysis (reference value: 95.3%); type: functional; settings: read-out: Activity
HGC-27 [12] = test: Induction of apoptosis in human HGC-27 cells assessed as late apoptotic cells at 0.1 uM incubated for 24 hrs by Annexin V-FITC/PI staining based analysis (reference value: 3%); type: functional
[13] = target: T1, von Hippel-Lindau disease tumor suppressor/Vascular endothelial growth factor receptor 2; test: PROTAC activity at VHL/VEGFR2 in human HGC-27 cells assessed as residual activity by measuring VEGFR2 expression level at 1 uM incubated for 24 hrs followed by compound washout and measured after 24 hrs by Western blot analysis relative to control; type: cell-based
HGC-27 [14] = test: Inhibition of cell migration in human HGC-27 cells assessed as suppression of cell migration at 3.3 uM incubated for 6 hrs by wound healing assay relative to control; type: functional
[15] = target: T1, von Hippel-Lindau disease tumor suppressor/Vascular endothelial growth factor receptor 2; test: PROTAC activity at VHL/VEGFR2 in human HGC-27 cells assessed as induction of VEGRF2 protein degradation at 1 uM preincubated with MLN4924 for 2 hrs followed by compound addition and measured after 24 hrs by Western blot analysis; type: cell-based
HGC-27 [16] = test: Antiinvasive activity in human HGC-27 cells assessed as reduction in number of invasive cells at 1 uM incubated for 24 hrs by transwell invasion assay (reference value: 118); type: functional
HGC-27 [17] = test: Inhibition of colony formation in human HGC-27 cells incubated for 8 days by crystal violet staining based analysis; type: functional, cell-based; settings: dose 0.033-3.33 µM, time 8.0 day
HGC-27 [18] = test: Induction of cell cycle arrest in human HGC-27 cells assessed as G2/M phase cells at 0.033 uM incubated for 24 hrs by PI staining based flow cytometric analysis (reference value: 13.3%); type: functional
HGC-27 [19] = test: Induction of cell cycle arrest in human HGC-27 cells assessed as accumulation of cells at G2/M phase incubated for 24 hrs by PI staining based flow cytometric analysis; type: functional; settings: dose 0.033-3.33 µM
HGC-27 [20] = test: Induction of cell cycle arrest in human HGC-27 cells assessed as G2/M phase cells at 0.33 uM incubated for 24 hrs by PI staining based flow cytometric analysis (reference value: 13.3%); type: functional
[21] = Effect on VEGFR2 mRNA expression in human HGC-27 cells at 0.33 uM incubated for 24 hrs by qPCR analysis relative to control; type: functional
HGC-27 [22] = test: Induction of apoptosis in human HGC-27 cells assessed as late apoptotic cells at 3.3 uM incubated for 24 hrs by Annexin V-FITC/PI staining based analysis (reference value: 3%); type: functional
[23] = target: T1, von Hippel-Lindau disease tumor suppressor/Vascular endothelial growth factor receptor 2; test: PROTAC activity at VHL/VEGFR2 in human HGC-27 cells assessed as residual activity by measuring VEGFR2 expression level at 1 uM incubated for 24 hrs followed by compound washout and measured after 36 hrs by Western blot analysis relative to control; type: cell-based
[24] = Effect on VEGFR2 mRNA expression in human HGC-27 cells at 1 uM incubated for 24 hrs by qPCR analysis relative to control; type: functional
[25] = target: T1, von Hippel-Lindau disease tumor suppressor/Vascular endothelial growth factor receptor 2; test: PROTAC activity at VHL/VEGFR2 in human HGC-27 cells assessed as half-life of intracellular VEGFR2 protein […] at 1 uM measured upto 24 hrs in the presence of cycloheximide by Western blot analysis (reference value: 5.45 hrs); type: cell-based
HGC-27 [26] = test: Induction of cell cycle arrest in human HGC-27 cells assessed as G0/G1 phase cells at 0.1 uM incubated for 24 hrs by PI staining based flow cytometric analysis (reference value: 47.4%); type: functional
[27] = target: T1, von Hippel-Lindau disease tumor suppressor/Vascular endothelial growth factor receptor 2; test: PROTAC activity at VHL/VEGFR2 in human HGC-27 cells assessed as reduction in relative VEGRF2 expression level at 1 uM preincubated with MLN4924 for 2 hrs followed by compound addition and measured after 24 hrs by Western blot analysis; type: cell-based
[28] = target: T1, von Hippel-Lindau disease tumor suppressor/Vascular endothelial growth factor receptor 2; test: PROTAC activity at VHL/VEGFR2 in human HGC-27 cells assessed as induction of VEGFR2 degradation at 1 uM measured after 12 hrs by Western blot analysis relative to control; type: cell-based
HGC-27 [29] = test: Induction of cell cycle arrest in human HGC-27 cells assessed as G2/M phase cells at 0.1 uM incubated for 24 hrs by PI staining based flow cytometric analysis (reference value: 13.3%); type: functional
[30] = target: T1, von Hippel-Lindau disease tumor suppressor/Vascular endothelial growth factor receptor 2; test: PROTAC activity at VHL/VEGFR2 in human HGC-27 cells assessed as induction of VEGFR2 degradation at 1 uM measured after 4 hrs by Western blot analysis relative to control; type: cell-based
[31] = Effect on VEGFR2 mRNA expression in human HGC-27 cells at 0.1 uM incubated for 24 hrs by qPCR analysis relative to control; type: functional
[32] = Cytotoxicity against human GES1 cells assessed as inhibition of cell growth incubated for 72 hrs by MTT assay; type: toxicity, cell-based
HGC-27 [33] = test: Antiproliferative activity against human HGC-27 cells assessed as inhibition of cell growth incubated for 72 hrs by MTT assay; type: functional, cell-based; settings: HGC-27, 72 h

T1 sequence (P35968 20-1356 limits assumed): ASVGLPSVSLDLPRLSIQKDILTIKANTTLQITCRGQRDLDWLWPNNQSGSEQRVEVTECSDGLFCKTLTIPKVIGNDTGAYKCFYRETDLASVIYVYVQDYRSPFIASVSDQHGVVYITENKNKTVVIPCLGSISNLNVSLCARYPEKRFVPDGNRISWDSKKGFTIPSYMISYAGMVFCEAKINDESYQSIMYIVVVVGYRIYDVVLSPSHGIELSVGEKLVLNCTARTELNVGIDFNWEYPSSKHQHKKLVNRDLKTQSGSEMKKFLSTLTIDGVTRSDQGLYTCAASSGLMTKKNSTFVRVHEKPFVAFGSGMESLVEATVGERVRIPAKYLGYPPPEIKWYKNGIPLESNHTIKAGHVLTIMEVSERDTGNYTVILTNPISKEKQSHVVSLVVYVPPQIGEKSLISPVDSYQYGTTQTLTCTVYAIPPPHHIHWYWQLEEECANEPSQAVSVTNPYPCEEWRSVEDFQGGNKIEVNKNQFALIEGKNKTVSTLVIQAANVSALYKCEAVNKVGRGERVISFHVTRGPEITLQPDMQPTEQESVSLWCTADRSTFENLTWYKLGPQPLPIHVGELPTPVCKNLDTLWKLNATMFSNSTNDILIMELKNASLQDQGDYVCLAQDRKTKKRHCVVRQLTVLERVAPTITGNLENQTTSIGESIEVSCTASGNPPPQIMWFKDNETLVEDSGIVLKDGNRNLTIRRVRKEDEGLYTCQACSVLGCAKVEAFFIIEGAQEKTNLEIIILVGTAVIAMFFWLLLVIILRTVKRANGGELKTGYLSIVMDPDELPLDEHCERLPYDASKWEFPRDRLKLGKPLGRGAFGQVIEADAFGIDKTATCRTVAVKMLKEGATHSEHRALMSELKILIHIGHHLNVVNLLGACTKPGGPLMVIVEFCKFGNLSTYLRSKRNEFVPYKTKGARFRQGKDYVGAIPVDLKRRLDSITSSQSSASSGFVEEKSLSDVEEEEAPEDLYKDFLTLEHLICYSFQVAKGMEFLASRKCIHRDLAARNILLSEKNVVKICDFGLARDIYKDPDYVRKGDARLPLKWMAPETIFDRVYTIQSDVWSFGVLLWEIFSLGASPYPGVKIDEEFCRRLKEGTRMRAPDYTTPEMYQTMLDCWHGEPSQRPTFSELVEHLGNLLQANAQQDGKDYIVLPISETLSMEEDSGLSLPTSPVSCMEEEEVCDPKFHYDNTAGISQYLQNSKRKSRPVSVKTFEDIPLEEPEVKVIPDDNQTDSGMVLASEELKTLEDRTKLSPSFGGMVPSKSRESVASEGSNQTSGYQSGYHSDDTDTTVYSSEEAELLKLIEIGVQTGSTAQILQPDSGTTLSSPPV
T1 sequence (P40337 whole entry partner): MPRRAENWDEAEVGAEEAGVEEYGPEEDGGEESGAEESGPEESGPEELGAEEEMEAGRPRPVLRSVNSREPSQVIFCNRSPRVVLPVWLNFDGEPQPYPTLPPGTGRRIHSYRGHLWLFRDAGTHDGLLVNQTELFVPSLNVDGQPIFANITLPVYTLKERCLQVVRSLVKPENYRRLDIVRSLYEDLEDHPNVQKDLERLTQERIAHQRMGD

- Activity [1]: inactive
- Activity [3]: 18.2%
- Emax [5]: 76.6%
- Activity [9]: inactive
- Activity [13]: 77%
- Activity [15]: inactive
- Activity [23]: 131%
- T1/2 [25]: 5.45 h
- Activity [27]: inactive
- Activity [28]: 33.3%
- Activity [30]: 16.9%
Structure (SMILES): Cc1ccc(NC(=O)Cn2cc(-c3ccc4c(NC(=O)c5ccc(NC(=O)CCCCCCCCC(=O)N[C@H](C(=O)N6C[C@H](O)C[C@H]6C(=O)NCc6ccc(-c7scnc7C)cc6)C(C)(C)C)cc5)n[nH]c4c3)cn2)cc1C(F)(F)F
- Activity (HGC-27 [2]): 0.46%
- Activity (HGC-27 [4]): 2%
- Activity [6]: 105.3%
- inhibition (HGC-27 [7]): Dose-Dependent Effect
- viability at 1 µM (HGC-27 [8]): 76.5%
- Activity (HGC-27 [10]): 36
- viability at 0.33 µM (HGC-27 [11]): 89.1%
- Activity (HGC-27 [12]): 4.2%
- inhibition at 3.3 µM (HGC-27 [14]): 12.3%
- Activity (HGC-27 [16]): 11
- inhibition (HGC-27 [17]): Dose-Dependent Effect
- Activity (HGC-27 [18]): 15.7%
- Activity (HGC-27 [19]): Dose-Dependent Effect
- Activity (HGC-27 [20]): 37.7%
- Activity [21]: 83%
- Activity (HGC-27 [22]): 30.5%
- Activity [24]: 91.3%
- Activity (HGC-27 [26]): 44.3%
- Activity (HGC-27 [29]): 18.2%
- Activity [31]: 90%
- IC50 at 72 h [32]: 20 µM
- IC50 (HGC-27 [33]): 2.03 µM
